For the assay, the target named is SFTSV CBD (cap-binding domain of SFTSV L protein) (Severe fever with thrombocytopenia syndrome virus, UniProt I0DF35). The assay can be described thus: biochemical.

The values below come from PMC7261188 (Nucleic Acids Research, 2020).

Sequence of SFTSV CBD (cap-binding domain of SFTSV L protein) (I0DF35 1695-1810 limits assumed): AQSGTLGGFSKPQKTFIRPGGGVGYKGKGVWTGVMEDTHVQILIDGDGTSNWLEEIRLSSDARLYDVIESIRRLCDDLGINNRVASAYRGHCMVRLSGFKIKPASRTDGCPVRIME

`C[n+]1cn([C@@H]2O[C@H](COP(=O)(O)OP(=O)(O)OP(=O)(O)O)[C@@H](O)[C@H]2O)c2nc(N)[nH]c(=O)c21` [m^7GTP] gave a Kd of about 138 µM.
